Source: the CheMixHub viscosity set
Several values for one entry are separate records, joined by “and”; a condition that tells them apart may be missing. Identical values can stand only once. ± gives the uncertainty stated by the source.

Test: xn = mol fraction of the nth substance listed

NS(=O)(=O)c1cc(C(=O)O)c(NCc2ccco2)cc1Cl + O
viscosity, 101 kPa
Conditions	293.15 K	298.15 K	303.15 K	308.15 K	313.15 K
x1 = 2e-05	1.009 ± 0.021 mPa·s	0.8969 ± 0.021 mPa·s and 0.8925 ± 0.021 mPa·s	0.8057 ± 0.021 mPa·s and 0.8013 ± 0.021 mPa·s	0.7295 ± 0.021 mPa·s and 0.7245 ± 0.021 mPa·s	0.6618 ± 0.021 mPa·s and 0.6566 ± 0.021 mPa·s
x1 = 9e-05	1.017 ± 0.021 mPa·s and 1.02 ± 0.021 mPa·s	0.9018 ± 0.021 mPa·s and 0.9048 ± 0.021 mPa·s	0.81 ± 0.021 mPa·s and 0.8104 ± 0.021 mPa·s	0.7336 ± 0.021 mPa·s and 0.7368 ± 0.021 mPa·s	0.6659 ± 0.021 mPa·s
x1 = 0.0002	1.022 ± 0.021 mPa·s and 1.018 ± 0.021 mPa·s	0.9069 ± 0.021 mPa·s and 0.9052 ± 0.021 mPa·s	0.8174 ± 0.021 mPa·s and 0.8126 ± 0.021 mPa·s	0.7401 ± 0.021 mPa·s and 0.7333 ± 0.021 mPa·s	0.6718 ± 0.021 mPa·s and 0.6662 ± 0.021 mPa·s

CC(Cl)(Cl)Cl + CCCCCCCC
303.15 K, 101 kPa
Conditions	viscosity [mPa·s]
x1 = 0.1465	0.4786 ± 0.012
x1 = 0.2573	0.4863 ± 0.013
x1 = 0.3398	0.495 ± 0.013
x1 = 0.4029	0.503 ± 0.013
x1 = 0.4971	0.5195 ± 0.013
x1 = 0.588	0.5408 ± 0.014
x1 = 0.6617	0.5623 ± 0.015
x1 = 0.7875	0.6103 ± 0.016
x1 = 0.8238	0.6267 ± 0.016
x1 = 0.9164	0.6735 ± 0.017

CC(Cl)(Cl)Cl + C1COCCO1
101.33 kPa
Conditions	viscosity
298.15 K, x1 = 0.102	1.141 ± 0.011 mPa·s
298.15 K, x1 = 0.201	1.097 ± 0.01 mPa·s
298.15 K, x1 = 0.3	1.057 ± 0.01 mPa·s
298.15 K, x1 = 0.4	1.016 ± 0.0096 mPa·s
298.15 K, x1 = 0.5	0.9762 ± 0.0093 mPa·s and 0.9767 ± 0.0093 mPa·s
298.15 K, x1 = 0.599	0.938 ± 0.009 mPa·s
298.15 K, x1 = 0.7	0.9003 ± 0.0086 mPa·s
298.15 K, x1 = 0.8	0.8635 ± 0.0083 mPa·s
298.15 K, x1 = 0.862	0.8404 ± 0.0081 mPa·s
303.15 K, x2 = 0.0725	0.7541 ± 0.0055 mPa·s
303.15 K, x2 = 0.1135	0.771 ± 0.0056 mPa·s
303.15 K, x2 = 0.2041	0.8089 ± 0.0059 mPa·s
303.15 K, x2 = 0.336	0.8625 ± 0.0063 mPa·s
303.15 K, x2 = 0.4193	0.8943 ± 0.0065 mPa·s
303.15 K, x2 = 0.5168	0.9291 ± 0.0067 mPa·s
303.15 K, x2 = 0.6428	0.97 ± 0.007 mPa·s
303.15 K, x2 = 0.7459	1.002 ± 0.0072 mPa·s
303.15 K, x2 = 0.8153	1.023 ± 0.0074 mPa·s
303.15 K, x2 = 0.9277	1.059 ± 0.0077 mPa·s

CC(Cl)(Cl)Cl + CCCCCCC
303.15 K, 101 kPa
Conditions	viscosity [mPa·s]
x1 = 0.138	0.3932 ± 0.01
x1 = 0.2468	0.4161 ± 0.011
x1 = 0.355	0.442 ± 0.011
x1 = 0.4494	0.4689 ± 0.012
x1 = 0.5571	0.5061 ± 0.013
x1 = 0.6233	0.5327 ± 0.014
x1 = 0.7095	0.5716 ± 0.015
x1 = 0.7857	0.6088 ± 0.016
x1 = 0.8262	0.63 ± 0.016
x1 = 0.9288	0.6849 ± 0.018

CC(O)c1ccccc1 (stereo unspecified) + c1ccccc1
293.15 K, 101.32 kPa
Conditions	viscosity [mPa·s]
x1 = 0.01616	0.6575 ± 0.13
x1 = 0.05419	0.708 ± 0.14
x1 = 0.09606	0.7832 ± 0.16
x1 = 0.1306	0.85 ± 0.17
x1 = 0.1766	0.9508 ± 0.19

O=[N+]([O-])[O-].O=[N+]([O-])[O-].[Ba+2] + N
293.15 K, 101 kPa
Conditions	viscosity [mPa·s]
x1 = 0.06	0.171 ± 0.004
x1 = 0.13	0.24 ± 0.006
x1 = 0.28	0.366 ± 0.009
x1 = 0.58	0.81 ± 0.02

O=C(O)CC(O)(CC(=O)O)C(=O)O + O
viscosity [mPa·s]
Conditions	293.15 K	298.15 K	303.15 K	308.15 K	313.15 K
100 kPa, x1 = 0.002	–	0.9112 ± 0.037	0.8258 ± 0.033	0.7481 ± 0.03	0.6742 ± 0.027
101.3 kPa, x1 = 0.00018	1.016 ± 0.06	0.908 ± 0.06	0.815 ± 0.06	0.737 ± 0.06	0.701 ± 0.06
101.3 kPa, x1 = 0.0003607	1.025 ± 0.06	0.917 ± 0.06	0.822 ± 0.06	0.741 ± 0.06	0.675 ± 0.06
101.3 kPa, x1 = 0.0005403	1.031 ± 0.06	0.922 ± 0.06	0.825 ± 0.06	0.747 ± 0.06	0.679 ± 0.06

O=CO + CC#N
303.15 K, 101 kPa
Conditions	viscosity [mPa·s]
x1 = 0.0912	0.386 ± 0.0081
x1 = 0.1824	0.422 ± 0.0088
x1 = 0.2772	0.468 ± 0.0097
x1 = 0.3728	0.523 ± 0.011
x1 = 0.4721	0.597 ± 0.012
x1 = 0.5735	0.691 ± 0.014
x1 = 0.6751	0.801 ± 0.016
x1 = 0.7806	0.962 ± 0.019
x1 = 0.8891	1.17 ± 0.024
